Source: patent US12012415B2, “Compositions and methods for the diagnosis, treatment and prevention of neoplastic and neurological disorders” (AscentGene, Inc., priority 2018, dated 2024)

Assays:
PC4 protein = PC4 protein (Homo sapiens, UniProt P53999); assay: PC4-DNA binding interference; settings: high-throughput screen platform
Method: A number of small molecules were incubated with PC4 protein and DNA binding assessed.

[1] = tested on: Aβ1-42-induced cognitive impairments; assay: Novel-object recognition (NOR) test in Aβ1-42 AD rat model; type: in vivo, rats
Method: Aβ1-42 (Sigma-Aldrich, St. Louis, MO, USA;) was dissolved in double-distilled water at the concentration of 5 μg/μl, and incubated at 37° C. for one week before surgery. The rats were randomly divided into four groups as Sham (n=8), Sham+AG-1601 (n=8), Aβ1-42 (n=8) and Aβ1-42+AG-1601 (n=8). The Alzheimer's disease rat models were established by intracerebroventricular (i.c.v.) injection of Aβ1-42 aggregates. The animals were anesthetized with intraperitoneal injection of pentobarbital sodium (50 mg/kg) and placed in a stereotaxic apparatus (Narishige, Japan). The head skin of the rat was opened and two small holes were drilled on both sides of skull following the coordinates: 0.8 mm posterior to bregma, +1.4 mm lateral to sagittal suture, 4.0 mm beneath the surface of brain. Aβ1-42 (2.0 μl per side) was injected bilaterally into the lateral ventricles through micro-syringe. The needle was taken out after 5 minutes of the injection to ensure the aggregates were infused completely. […] The short- and long-term memory functions of the animals were evaluated by using the NOR test, which were carried out after the open field test. […] A recognition index was calculated by the percentage of TB/(TA+TB) (TA: time spent exploring the familiar object A; TB: time spent exploring the novel object B). […]

[2] = tested on: hippocampal synaptic plasticity in the CA1 region; assay: In vivo electrophysiology, hippocampal CA1 LTP and DEP, Aβ1-42 AD rat model; set-up: species or system rats; settings: last 20 min, vs Aβ1-42 group
Method: Aβ1-42 (Sigma-Aldrich, St. Louis, MO, USA;) was dissolved in double-distilled water at the concentration of 5 μg/μl, and incubated at 37° C. for one week before surgery. The rats were randomly divided into four groups as Sham (n=8), Sham+AG-1601 (n=8), Aβ1-42 (n=8) and Aβ1-42+AG-1601 (n=8). The Alzheimer's disease rat models were established by intracerebroventricular (i.c.v.) injection of Aβ1-42 aggregates. The animals were anesthetized with intraperitoneal injection of pentobarbital sodium (50 mg/kg) and placed in a stereotaxic apparatus (Narishige, Japan). The head skin of the rat was opened and two small holes were drilled on both sides of skull following the coordinates: 0.8 mm posterior to bregma, +1.4 mm lateral to sagittal suture, 4.0 mm beneath the surface of brain. Aβ1-42 (2.0 μl per side) was injected bilaterally into the lateral ventricles through micro-syringe. The needle was taken out after 5 minutes of the injection to ensure the aggregates were infused completely. Rats in the Sham group underwent the same operational process, but same volumes of double-distilled water were injected instead of Aβ1-42. After surgery, all rats were injected with penicillin (100,000 U) in the hindquarter muscle to prevent infection. The animals of Sham+AG-1601 and Aβ1-42+AG-1601 groups were intravenous injection with AG-1601 (1 mg/kg), while the same volume vehicle was implemented for the other groups every day for 14 days after one week of the postoperative recovery. The rats were placed in the stereotaxic apparatus after intraperitoneal injection of 30% urethane (0.4 g/kg Sigma-Aldrich, St. Louis, MO, USA). According to our former protocols (Gao et al., 2015) the appropriate incision on the scalp was cut to expose the skull and a small hole was drilled. […] The depth of both electrodes was optimized to acquire the proper amplitude of evoked potentials. […] A test stimulus was given every 30 s to record for 20 min as baseline. Then LTP was induced by TBS (30 trains of 12 pulses at 200 Hz) and recorded every 60s for 60 min. […]

C=CC1=C(C)c2cc3[nH]c(cc4nc(cc5[nH]c(cc1n2)c(C)c5C=C)C(C)=C4CCC(=O)O)c(CCC(=O)NCCCc1ccccc1)c3C [AG-1601, 3-(2,8,13,18-tetramethyl-3-(3-oxo-3-((3-phenylpropyl)amino)propyl)-12,17-divinylporphyrin-7-yl)propanoic acid]
PC4 inhibition (PC4 protein): strong PC4 inhibitor | recognition index, short-term memory test ([1]; 1 h after training, vs Aβ1-42 group): significant increase in recognition index | cognitive impairments in NOR test ([1]; Aβ42 induced AD rat model): significantly reversed cognitive impairments | fEPSP slopes of DEP [2]: reversed effectively | fEPSP slopes of LTP [2]: significantly recovered | fEPSP slopes of LTP ([2]; listed as AG-1061): augmented significantly
